Measurements reported in patent US20060223743A1, “Metabolites of cyclosporin analogs” (priority 2004, published 2006).

Test system: calcineurin
Assay: Calcineurin activity assay in whole blood lysates (dephosphorylation of 32P-labelled 19 amino acid peptide substrate)
Assay type: biochemical
Conditions: in the presence of okadaic acid
Method: Calcineurin activity was assayed using a modification of the method previously described by Fruman et al. (A Proc Natl Acad Sci USA, 1992) and in U.S. Pat. No. 6,605,593. Whole blood lysates are evaluated for their ability to dephosphorylate a ^32P-labelled 19 amino acid peptide substrate in the presence of okadaic acid, a phosphatase-type 1 and 2 inhibitor. Background phosphatase 2C activity (CsA and okadaic acid resistant activity) is determined and subtracted from each sample, with the assay performed in the presence and absence of excess added ISA247. The remaining phosphatase activity is taken as calcineurin activity.

C=C/C=C/C[C@@H](C)[C@@H](O)[C@H]1C(=O)N[C@@H](CC)C(=O)N(C)CC(=O)N(C)[C@@H](CC(C)C)C(=O)N[C@@H](C(C)C)C(=O)N(C)[C@@H](CC(C)C)C(=O)N[C@@H](C)C(=O)N[C@H](C)C(=O)N(C)[C@@H](CC(C)C)C(=O)N(C)[C@@H](CC(C)C)C(=O)N(C)[C@@H](C(C)C)C(=O)N1C [Trans ISA247]
Metabolite EC50 (calcineurin inhibition): 0.208 µg/mL
Metabolite Emax (percent calcineurin inhibition): 107%
